Source: patent publication US10485766B2, “Drug delivery system and method for the treatment of neuro-degenerative disease” (Aphios Corporation, priority 2011, dated 2019)

Experiments:
[1] = tested on: Mouse strain B6C3-Tg carrying mutant sweAPP and PS1 genes; test: Water maze studies; format: in vivo; settings: 5 micrograms/mouse on alternative days orally in oil formulation; sweAPP/PS1 mice, 5-6 months of age; versus control animals
Excerpt: Mouse strain B6C3-Tg carrying mutant Swedish Amyloid precursor protein (sweAPP) and PS1 (presenilin-1) genes associated with early onset Alzheimer's disease were subjected to water maze tests at 5-6 months of age.

[2] = tested on: alpha-secretase processing of amyloid precursor protein (APP); test: alpha-secretase processing of APP to s-APP alpha in SH-SY5Y neuroblastoma cell line; format: cell-based; settings: as nanospheres
Excerpt: (§1) These events are well-described cell and pharmacological events associated with prevention of beta-secretase mediated formation of beta-amyloid, the presumptive cause of dementia in human Alzheimer's disease and in the sweAPP/PS1 mouse model of Alzheimer's disease.

[3] = Concentrations of Bryostatin in different solvents (normal phase HPLC); format: physicochemical; settings: for Concentration: theoretical 2.5 mg/100 mL
Procedure: Isopropyl alcohol, Extra Virgin olive oil, sesame oil, and vegetable oil were all used as solvents.
Thirty microliters of the stock solution were placed in each of 4 clean, dry HPLC vials. The ethanol was allowed to evaporate, leaving 25 micrograms in the vial. Then, 1.0 mL of the solvent was placed in the vial and vortexed to ensure proper mixing. These samples were then injected on a normal phase HPLC system, with a gradient of 10%-70% isopropyl alcohol in hexane as the mobile phase (specifically developed for this experiment).
The concentration of each vial theoretically should be 2.5 mg/100 mL.
The reason for the higher concentrations than the standard (isopropyl alcohol) is due to the baseline. While attempting a baseline subtraction for each oil, there was negative absorbance so the blank IPA sample was subtracted from each sample's baseline. While this incorporates a little more area for integration, the amount of Bryostatin in the oil was quantifiable.

[4] = biological target: T1, protein kinase C (PKC) isoform epsilon (Homo sapiens, UniProt Q02156); test: PKC epsilon activation (membrane translocation) in SH-SY5Y cells; format: cell-based; settings: as nanospheres; SH-SY5Y neuroblastoma cell line
T1 construct: (measured by membrane translocation) in the SH-SY5Y neuroblastoma cell line; endogenous in cells; host or cells: SH-SY5Y neuroblastoma cell line
T1 sequence (Q02156 1-737): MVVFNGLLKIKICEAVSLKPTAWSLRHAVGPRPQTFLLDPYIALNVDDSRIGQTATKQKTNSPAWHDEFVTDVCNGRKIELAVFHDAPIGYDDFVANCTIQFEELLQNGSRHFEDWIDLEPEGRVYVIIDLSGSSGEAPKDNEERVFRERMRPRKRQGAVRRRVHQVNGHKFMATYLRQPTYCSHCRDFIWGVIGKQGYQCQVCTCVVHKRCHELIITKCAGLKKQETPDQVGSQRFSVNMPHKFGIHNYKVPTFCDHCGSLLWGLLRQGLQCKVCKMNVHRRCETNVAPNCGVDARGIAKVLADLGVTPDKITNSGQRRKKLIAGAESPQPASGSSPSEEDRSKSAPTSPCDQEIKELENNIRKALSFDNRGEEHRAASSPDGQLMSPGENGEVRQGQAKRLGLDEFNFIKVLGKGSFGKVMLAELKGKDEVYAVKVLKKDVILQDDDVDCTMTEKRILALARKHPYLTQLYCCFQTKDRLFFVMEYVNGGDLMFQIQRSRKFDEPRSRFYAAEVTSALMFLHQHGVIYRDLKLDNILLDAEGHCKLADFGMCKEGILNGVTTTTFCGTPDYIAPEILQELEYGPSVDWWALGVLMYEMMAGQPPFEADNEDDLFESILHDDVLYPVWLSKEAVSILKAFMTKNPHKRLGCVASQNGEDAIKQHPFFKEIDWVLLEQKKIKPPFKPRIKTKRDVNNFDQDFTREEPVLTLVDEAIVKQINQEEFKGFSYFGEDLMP
Excerpt: as §1

[5] = biological target: T2, protein kinase C (PKC) isoform alpha (Homo sapiens, UniProt P17252); test: PKC alpha activation (membrane translocation) in SH-SY5Y cells; format: cell-based; settings: as nanospheres; SH-SY5Y neuroblastoma cell line
T2 construct: (measured by membrane translocation) in the SH-SY5Y neuroblastoma cell line; endogenous in cells; host or cells: SH-SY5Y neuroblastoma cell line

CCC/C=C/C=C/C(=O)O[C@H]1/C(=C/C(=O)OC)C[C@H]2C[C@H]([C@@H](C)O)OC(=O)C[C@H](O)C[C@@H]3C[C@H](OC(C)=O)C(C)(C)[C@](O)(C[C@@H]4C/C(=C/C(=O)OC)C[C@H](/C=C/C(C)(C)[C@]1(O)O2)O4)O3 [Bryostatin-1]
protection against memory loss in water maze [1]: significant protection
alpha-secretase processing of APP to s-APP alpha [2]: induce alpha-secretase processing of amyloid precursor protein (APP) to s-APP alpha
Concentration ([3]; Solvent Extra Virgin Olive Oil): 2.9945 mg/100 mL
Concentration ([3]; Solvent Extra Virgin olive with mixed natural tocopherol antioxidants, lecithin and medium chain triglyceride emulsifiers): 2.4431 mg/100 mL
Concentration ([3]; Solvent Isopropyl Alcohol (standard)): 2.6035 mg/100 mL
Concentration ([3]; Solvent Vegetable Oil): 2.5475 mg/100 mL
solubility in oils ([3]; different types of oil): soluble
activation of PKC epsilon (membrane translocation) [4]: activate
activation of PKC alpha (membrane translocation) [5]: activate
